Experimental data reported in patent US20120064056A1, “DICHLORACETATE IN COMBINATION WITH CLINICALLY HIGH LEVELS OF CARDIOPROTECTIVE OR HEMODYNAMIC DRUGS” (THE GOVERNORS OF THE UNIVERSITY OF ALBERTA TEC Edmonton, priority 2002, published 2012).

Key:
[1] = test system: isolated rat hearts subjected to low flow demand ischemia; experiment: Isolated working rat heart, low flow demand ischemia: cardiac function and efficiency; conditions: for Aortic Outflow / Cardiac Output / Coronary Flow / HR × PSP / Heart Rate / Peak Systolic Pressure: DCA 2 mM, diltiazem 0.8 μM, metoprolol 1 μM
Experimental: (§1) Hearts were trimmed of excess tissue, and the pulmonary artery and the opening to the left atrium were then cannulated. After 15 min of Langendorff perfusion, hearts were switched to the working mode by clamping the aortic inflow line from the Langendorff reservoir and opening the left atrial inflow line. The perfusate was delivered from an oxygenator into the left atrium at a constant preload pressure of 11 mm Hg. […] The afterload was set at a hydrostatic pressure of 80 mm Hg. […] Palmitate was bound to the albumin as described previously ([…]., et al. J Biol. Chem. 267:3825-3831 (1992)). […] For the aerobic model hearts, all tested compounds were introduced into the heart 5 minutes into the working mode following Langendorff Perfusion. Spontaneously beating hearts were used in all perfusions. Heart rate and aortic pressure were measured with a Biopac Systems Inc. blood pressure transducer connected to the aortic outflow line. Cardiac output and aortic flow were measured with Transonic […] ultrasonic flow probes in the preload and afterload lines, respectively. Coronary flow was calculated as the difference between cardiac output and aortic flow. […] Cardiac work was calculated as the product of systolic pressure and cardiac output. Cardiac efficiency was defined as a ratio of cardiac work to MVO2. […] All tested compounds were introduced into the perfusate five minutes into initiation of aerobic perfusion.

[2] = test system: isolated rat hearts subjected to global ischemia; experiment: Isolated working rat heart, global no flow ischemia and reperfusion: cardiac function and efficiency
Experimental: as §1, with “prior to reperfusion.” for “into initiation of aerobic perfusion.”

isolated rat hearts = experiment: Isolated working rat heart, aerobic perfusion: glycolysis and glucose oxidation; design: glycolytic rates (glycolysis) / glucose oxidation rates: unit not given here; conditions: normal hearts, aerobic, DCA 2 mM, digoxin 3 nM, diltiazem 0.8 μM, dobutamine 1 μM, metoprolol 1 μM
Experimental: Rat hearts were cannulated for isolated working heart perfusions as described in “An imbalance between glycolysis and glucose oxidation is a possible explanation for the detrimental effects of high levels of fatty acids during aerobic reperfusion of ischemic hearts.”, (J Pharmacol Exp Ther. 264:135 (1993); herein incorporated by reference. In brief, male Sprague-Dawley rats (0.3-0.35 kg) were anesthetized with pentobarbital sodium (60 mg/kg IP) and hearts were quickly excised, the aorta was cannulated and a retrograde perfusion at 37° C. was initiated at a hydrostatic pressure of 60 mm Hg. Hearts were trimmed of excess tissue, and the pulmonary artery and the opening to the left atrium were then cannulated. After 15 min of Langendorff perfusion, hearts were switched to the working mode by clamping the aortic inflow line from the Langendorff reservoir and opening the left atrial inflow line. The perfusate was delivered from an oxygenator into the left atrium at a constant preload pressure of 11 mm Hg. Perfusate was ejected from spontaneously beating hearts into a compliance chamber (containing 1 ml of air) and into the aortic outflow line. The afterload was set at a hydrostatic pressure of 80 mm Hg. All working hearts were perfused with Krebs'-Henseleit solution containing calcium 2.5 mmol/L, glucose 5.5 mmol/L, 3% bovine serum albumin (Fraction V, Boehringer Mannheim), and with 1.2 mmol/L palmitate. Palmitate was bound to the albumin as described previously (Saddik M., et al. J Biol. Chem. 267:3825-3831 (1992)). The perfusate was recirculated, and pH was adjusted to 7.4 by bubbling with a mixture containing 95% O2 and 5% CO2. For the aerobic model hearts, all tested compounds were introduced into the heart 5 minutes into the working mode following Langendorff Perfusion.
Glycolysis and glucose oxidation were measured simultaneously by perfusing hearts with [5-^3H/U-^14C] glucose (Liu H., et al. Am J Physiol. 270:H72-H80 (1996); Taegtmeyer Het al. Am J Cardiol. 80:3A-10A (1997)). The total myocardial ^3H2O production and ^14CO2 production were determined at 10 minute intervals for the entirety of the aerobic period, 60 minutes for normal hearts and 30 minutes for the global ischemia and low flow demand ischemia models. In the global ischemia model, the total myocardial ^3H2O and ^14CO2 production were determined at 20 minute intervals for the 60 minute reperfusion period. In the low flow demand ischemia model, the total myocardial ^3H2O and ^14CO2 production were determined at 10 minute intervals for the 30 minute reperfusion period. Glucose oxidation rates were determined by quantitative measurement of ^14CO2 production as described previously (Barbour R. L., et al. Biochemistr. 1923:6503-6062 (1984)).

[3] = low flow ischemia: aerobic period
[4] = low flow ischemia: ischemic period
[5] = post-ischemic reperfusion, DCA 2 mM, digoxin 3 nM, metoprolol 1 μM

## COCCc1ccc(OCC(O)CNC(C)C)cc1 (stereo not shown) [Metoprolol, metoprolol]
[1]; low flow demand ischemia, FIG. 24, FIG. 30
  cardiac work, in words: no significant changes
[1]; low flow demand ischemia, FIG. 25, FIG. 31
  oxygen consumption, in words: no significant changes
[1]; low flow demand ischemia, Table 1
  peak systolic pressure, effect in words: no significant increase
[1]; low flow demand ischemia, Table 1, compared to control
  heart rate, effect in words: no significant increase
[1]; low flow demand ischemia, Table 2
  coronary flow (coronary outflow), effect in words: no significant increase
[1]; [3]
  Aortic Outflow: 25 ± 2 mL/min
  Cardiac Output: 47 ± 2 mL/min
  Coronary Flow: 22 ± 1 mL/min
  HR × PSP: 30 ± 2 beats · min^−1 · mmHg · 10^−2
  Heart Rate: 216 ± 10 beats · min^−1
  Peak Systolic Pressure: 141 ± 7 mmHg
[1]; [4]
  Aortic Outflow: 17 ± 3 mL/min
  Cardiac Output: 31 ± 4 mL/min
  Coronary Flow: 14 ± 1 mL/min
  HR × PSP: 30 ± 2 beats · min^−1 · mmHg · 10^−2
  Heart Rate: 216 ± 10 beats · min^−1
  Peak Systolic Pressure: 141 ± 7 mmHg
[1]; low-flow ischemic period, FIG. 23, FIG. 29
  cardiac function, in words: no significant changes
[2]; [5]
  Aortic Outflow: 11 ± 5 mL/min
  Cardiac Output: 24 ± 9 mL/min
  Coronary Flow: 13 ± 4 mL/min
  HR × PSP: 13 ± 6 beats · min^−1 · mmHg · 10^−2
  Heart Rate: 185 ± 40 beats · min^−1
  Peak Systolic Pressure: 73 ± 17 mmHg
[2]; reperfusion period
  functional parameters (cardiac function, cardiac efficiency) during the reperfusion period compared to control (Table 1, Table 2), in words: significantly improved
[2]; reperfusion period, FIG. 11, FIG. 17
  recovery of cardiac function of previously ischemic hearts compared to control, in words: does not change cardiac function
[2]; reperfusion period, FIG. 12, FIG. 18
  recovery of cardiac work of previously ischemic hearts compared to control, in words: significantly improve the recovery
[2]; reperfusion period, FIG. 13, FIG. 19
  recovery of oxygen consumption of previously ischemic hearts, in words: There does not appear to be significant differences
[2]; reperfusion period, FIG. 14, FIG. 20
  recovery of cardiac efficiency of previously ischemic hearts compared to control, in words: does not
Isolated rat hearts; FIG. 1, 3, 5, 7, control 361±43
  glucose oxidation rates: 651±222
Isolated rat hearts; FIG. 2, 4, 6, 8, control 3.430±0.604
  glycolytic rates (glycolysis): 4.530±0.876
